Laboratory results published in patent US12403122B2, “Method for treating amyotrophic lateral sclerosis using quercetin-containing compositions” (Quercis Pharma AG, priority 2021, dated 2025).
“Also recorded” adds a separate entry of the source.

How the values were obtained:
[1] = test system: SOD1G93A mutant rat model of ALS; experiment: Immunohistochemical staining of spinal cords after post-paralysis isoquercetin treatment (Example 1); assay type: in vivo; conditions: SOD1G93A rats, versus vehicle
Experimental: Materials and Methods: Animals: Male SOD1G93A progeny were used for further breeding to maintain the line. Rats were housed in a centralized animal facility with a 12-h light-dark cycle with ad libitum access to food and water. Perfusion with fixatives was performed under 90% ketamine-10% xylazine anesthesia and all efforts were made to minimize animal suffering, discomfort, or stress. All procedures using laboratory animals were performed in accordance with the national and international guidelines and were approved by the Institutional Animal Committee for animal experimentation. Male hemizygous NTac:SD-TgN (SOD1-G93A)L26H rats (Taconic), originally developed by Howland et al. (2002), were bred locally by crossing with wild-type nontransgenic Sprague-Dawley female rats.
Treatment with Isoquercetin: All rats were weighed and evaluated for motor activity daily.
Fixed spinal cords were removed, postfixed by immersion for 24 h, and then transverse sectioned ([…]) in a Leica cryostat. Serial sections were collected in 100 mM PBS for immunohistochemistry.

rat model of ALS = conditions: downregulation of aberrant glial cells and reactive microglia; cited from earlier work

Structure (SMILES)	number of ventral horn motor neurons expressing misfolded SOD1 and Ubiquitin ([1]; 15 days after paralysis onset)	microgliosis: number of Iba1+ cells in the ventral horn of the lumbar spinal cord ([1]; oral 30 mg/kg/day for 15 days starting after paralysis onset, 30 mg/kg/day)	number of hypertrophic (reactive, GFAP-positive) astrocytes surrounding motor neurons in the lumbar spinal cord ([1]; oral 30 mg/kg/day for 15 days starting after paralysis onset, given together with vitamin C and niacin, 30 mg/kg/day)	paralysis progression (rat model of ALS)
O=c1c(O[C@@H]2O[C@H](CO)[C@@H](O)[C@H](O)[C@H]2O)c(-c2ccc(O)c(O)c2)oc2cc(O)cc(O)c12 [isoquercetin, quercetin-3-O-β-d-glucopyranoside]	apparently reduced; also recorded: significant reduction	significantly reduced; also recorded: Significant reduction	significantly reduced; also recorded: significant reduction	–
Cc1ccc(NC(=O)c2ccc(CN3CCN(C)CC3)cc2)cc1Nc1nc(-c2cccnc2)cs1 [masitinib]	–	–	–	slowed paralysis progression
